Here are results for ten molecules from patent US8859601B2, “Substituted benzyl and phenylsulfonyl triazolones, and use thereof” (Bayer Intellectual Property GmbH, priority 2008, dated 2014).

Each structure is given as a SMILES string. pIC50: −log10 of the molar value.

The pIC50 is the negative decadic logarithm of the IC50, by convention in mol/L. Read a high pIC50 as a small IC50.

In one test the target is T1, human V2 receptor (Homo sapiens, UniProt P30518).
T1 construct: Gα16 (possible fusion partner; the text leaves open whether it was fused or expressed separately); expressed in transfected cells; host or cells: CHO K1 (ATCC), constitutively expressing a modified aequorin and co-transfected with Gα16
T1 sequence (P30518 whole entry, the tested form may be a part): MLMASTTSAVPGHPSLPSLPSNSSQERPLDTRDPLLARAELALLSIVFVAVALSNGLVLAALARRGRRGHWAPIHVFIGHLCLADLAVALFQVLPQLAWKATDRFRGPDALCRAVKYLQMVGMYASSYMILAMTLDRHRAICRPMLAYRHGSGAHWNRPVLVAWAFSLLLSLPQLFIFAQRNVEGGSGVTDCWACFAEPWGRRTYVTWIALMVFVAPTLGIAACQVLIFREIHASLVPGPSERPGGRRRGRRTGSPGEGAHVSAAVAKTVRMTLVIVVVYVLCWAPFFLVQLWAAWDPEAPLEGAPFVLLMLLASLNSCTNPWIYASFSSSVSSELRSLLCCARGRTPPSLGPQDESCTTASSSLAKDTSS
Nature of the test: Cellular in vitro assay for determining the vasopressin receptor activity (aequorin luminescence, antagonism of [Arg8]-vasopressin), hV2. Type of test: cell-based. The conditions noted are these: CHO cell line transfected with the human V2 receptor (and Gα16); agonist [Arg8]-vasopressin. The source says: (§1) B-1. Cellular In Vitro Assay for Determining the Vasopressin Receptor Activity
(§2) The identification of agonists and antagonists of the V1a and V2 vasopressin receptors from humans and rats and also the quantification of the activity of the substances described here took place using recombinant cell lines. These cells derive originally from a hamster ovary epithelial cell (Chinese Hamster Ovary, CHO K1, ATCC: American Type Culture Collection, Manassas, Va. 20108, USA). The test cell lines constitutively express a modified form of the calcium-sensitive photoprotein aequorin, which, after reconstitution with the cofactor coelenterazine, emits light when there are increases in the free calcium concentration (Rizzuto R., Simpson A. W., Brini M., Pozzan T.; Nature 358 (1992) 325-327). In addition, the cells are stably transfected with the human or rat V1a or V2 receptors. In the case of the Gs-coupling V2 receptors, the cells are stably transfected with a further gene, which codes for the promiscuous Gα16 protein (Amatruda T. T., Steele D. A., Slepak V. Z., Simon M. I., Proc. Nat. Acad. Sci. USA 88 (1991), 5587-5591), either independently or as a fusion gene. The resulting vasopressin receptor test cells react to stimulation of the recombinantly expressed vasopressin receptors by intracellular release of calcium ions, which can be quantified by the resulting aequorin luminescence using a suitable luminometer (Milligan G., Marshall F., Rees S., Trends in Pharmaco. Sci. 17 (1996) 235-237).
(§3) On the day before the assay, the cells are plated out in culture medium (DMEM, 10% FCS, 2 mM glutamine, 10 mM HEPES) in 384-well microtiter plates and kept in a cell incubator (96% humidity, 5% v/v carbon dioxide, 37° C.). On the day of the assay, the culture medium is replaced by a Tyrode solution (140 mM sodium chloride, 5 mM potassium chloride, 1 mM magnesium chloride, 2 mM calcium chloride, 20 mM glucose, 20 mM HEPES), which additionally contains the cofactor coelenterazine (50 μM), and the microtiter plate is then incubated for a further 3-4 hours. The test substances in various concentrations are placed for 10 to 20 minutes in the wells of the microtiter plate before the agonist [Arg8]-vasopressin is added, and the resulting light signal is measured immediately in the luminometer. The IC50 values are calculated using the GraphPad PRISM computer program (Version 3.02).
(§4) The table below lists representative IC50 values for the compounds of the invention on the cell line transfected with the human V1a or V2 receptor: […]

The next test concerns the target T2, human V1a receptor (Homo sapiens, UniProt P37288).
T2 construct: expressed in transfected cells; host or cells: CHO K1 (ATCC), constitutively expressing a modified aequorin
Description: Cellular in vitro assay for determining the vasopressin receptor activity (aequorin luminescence, antagonism of [Arg8]-vasopressin), hV1a. The conditions noted are these: CHO cell line transfected with the human V1a receptor; agonist [Arg8]-vasopressin. The test is classed as cell-based.
Description: as §1, §2, §3, §4

T2 sequence (P37288 whole entry): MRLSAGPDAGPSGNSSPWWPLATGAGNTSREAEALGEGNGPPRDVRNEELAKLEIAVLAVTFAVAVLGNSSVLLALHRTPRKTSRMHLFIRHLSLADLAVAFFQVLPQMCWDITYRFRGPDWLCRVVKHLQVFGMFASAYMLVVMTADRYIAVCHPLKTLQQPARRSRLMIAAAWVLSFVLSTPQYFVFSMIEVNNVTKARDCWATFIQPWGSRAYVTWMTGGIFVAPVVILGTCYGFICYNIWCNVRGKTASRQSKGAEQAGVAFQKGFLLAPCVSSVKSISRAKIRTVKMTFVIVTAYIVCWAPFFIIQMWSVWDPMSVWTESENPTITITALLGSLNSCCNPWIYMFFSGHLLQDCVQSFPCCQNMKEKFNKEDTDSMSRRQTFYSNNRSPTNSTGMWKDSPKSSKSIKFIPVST

Turning to `C=CCn1c(-c2ccc(Cl)cc2)nn(S(=O)(=O)c2ccc(C(=O)NC(C)(C)C)cc2OC)c1=O` [Example 1, N-tert-Butyl-4-{[3-(4-chlorophenyl)-5-oxo-4-prop-2-en-1-yl-4,5-dihydro-1H-1,2,4-triazol-1-yl]sulphonyl}-3-methoxybenzenecarboxamide], the values for the pIC50 at human V2 receptor and at human V1a receptor were 8.52 and 5.26, respectively.

As to `COc1cc(C(=O)NC(C)(C)C)ccc1S(=O)(=O)n1nc(-c2ccc(Cl)cc2)n(C2CC2)c1=O` [Example 2], the negative-log IC50 (pIC50) at human V2 receptor was 8.52; on human V1a receptor, 5.43.

In the case of `COc1cc(C(=O)NC(C)(C)C)ccc1S(=O)(=O)n1nc(OC(C)C)n(C2CC2)c1=O` [Example 3], the negative-log IC50 (pIC50) was 7.89 at human V2 receptor and less than 4.60 on human V1a receptor.

With `COc1cc(C(=O)NC(C)(C)C)ccc1S(=O)(=O)n1nc(N(C)C)n(C2CC2)c1=O` [Example 7], the negative logarithm of the IC50 (pIC50) was 8.15 on human V2 receptor and less than 4.60 on human V1a receptor.

Consider `COc1ccc(C(C)=O)cc1S(=O)(=O)n1nc(-c2ccc(Cl)cc2)n(C2CC2)c1=O` [Example 13], for which the pIC50 on human V2 receptor is 6.54; on human V1a receptor, 5.46.

Consider `COc1cc(C(=O)NC(C)(C)C)ccc1S(=O)(=O)n1nc(-c2ccc(Cl)cc2)[nH]c1=O` [Example 14, N-tert-Butyl-4-{[3-(4-chlorophenyl)-5-oxo-4,5-dihydro-1H-1,2,4-triazol-1-yl]sulphonyl}-3-methoxybenzenecarboxamide], for which the pIC50 is 8.05 on human V2 receptor and less than 4.60 on human V1a receptor.

Consider `CC(C)(C)NC(=O)c1ccc(S(=O)(=O)n2nc(-c3ccc(Cl)cc3)n(C3CC3)c2=O)cc1` [Example 17, N-tert-Butyl-4-{[3-(4-chlorophenyl)-4-cyclopropyl-5-oxo-4,5-dihydro-1H-1,2,4-triazol-1-yl]sulphonyl}benzenecarboxamide], for which the results for the pIC50 at human V2 receptor and at human V1a receptor were 8.40 and 5.15, respectively.

As to `COc1cc(C(=O)NC(C)(C)C)ccc1Cn1nc(-c2ccc(Cl)cc2)n(C2CC2)c1=O` [Example 20, N-tert-Butyl-4-{[3-(4-chlorophenyl)-4-cyclopropyl-5-oxo-4,5-dihydro-1H-1,2,4-triazol-1-yl]methyl}-3-methoxybenzenecarboxamide], the pIC50 at human V2 receptor is 8.40; on human V1a receptor, 4.82.

For the molecule `COc1cc(Cn2nc(-c3ccc(Cl)cc3)n(C3CC3)c2=O)ccc1C(=O)NC(C)(C)C` [Example 22, N-tert-Butyl-4-{[3-(4-chlorophenyl)-4-cyclopropyl-5-oxo-4,5-dihydro-1H-1,2,4-triazol-1-yl]methyl}-2-methoxybenzamide], the negative logarithm of the IC50 (pIC50) at human V2 receptor was 6.66; on human V1a receptor it was 6.06.

For the molecule `CC(C)(C)NC(=O)c1ccc(Cn2nc(-c3ccc(Cl)cc3)n(C3CC3)c2=O)c(Cl)c1` [Example 27, N-tert-Butyl-3-chloro-4-{[3-(4-chlorophenyl)-4-cyclopropyl-5-oxo-4,5-dihydro-1H-1,2,4-triazol-1-yl]methyl}benzamide], the negative-log IC50 (pIC50) at human V2 receptor is 7.57; on human V1a receptor, 5.38.
